The values that follow come from PMC7222207, “Characterization of a CholesteroNitrone (ISQ-201), a Novel Drug Candidate for the Treatment of Ischemic Stroke” (Antioxidants, 2020).

Test [1] relates to transient forebrain ischemia. The test can be described thus: Long-term behavioral tests in Y maze (exploration, spatial recognition, spatial memory). The test is classed as in vivo, male Wistar rats. Conditions: 0.05 mg/kg iv at reperfusion onset, 11 weeks after ischemic reperfusion. The protocol:
For the long-term studies, animals were subjected to behavioral tests, in order to assess their spontaneous spatial alternation and spatial memory skills, as markers of neurological damage present in longer periods, after the surgical procedure. According to previous literature, we selected the Y maze, in which both the exploration activity (spatial recognition) and spatial memory were evaluated.
For the exploration activity and spatial recognition, control animals and ischemic animals treated with the vehicle or ISQ-201 were placed in the center of the maze and let to explore for 8 min. The total number of arms that the animal entered indistinctly (number of arm entries) and the times that the animal explored consecutively—the three different arms of the maze (number of alternations or triads)—were registered by an observer blind to the treatment.
For the assessment of spatial memory, the control animals and ischemic animals treated with the vehicle or ISQ-201 were placed into one of the arms of the Y maze (start arm) and were allowed to explore the maze with one of the arms closed for 10 min (training trial). After 1 h, the rats were returned to the Y maze by placing them in the start arm and allowing them to freely explore all three arms of the maze for 3 min. The arm of the first choice of entry, the new or old, was registered manually by an observer blind to the treatment.

Test [2] has as its system transient forebrain ischemia, hippocampal CA1 and cortical neurons. Nature of the test: Global cerebral ischemia (4VO), neuronal apoptosis by TUNEL assay. Also noted: maximum neuroprotection (Emax), TUNEL assay: dose or concentration left out as unconfirmed. Conditions: for maximum neuroprotection (Emax), TUNEL assay: iv at reperfusion onset. The test is classed as in vivo, male Wistar rats. The protocol:
Transient forebrain ischemia was induced in adult male Wistar rats (10–12 weeks, Charles River) by the standard four-vessel occlusion model (4VO) described previously. Briefly, both vertebral arteries were irreversibly occluded by electrocoagulation under anesthesia, with a mixture of atropine, ketamine, and diazepam (0.25, 62.5, and 5 mg/kg, respectively) delivered through intraperitoneal injection. After 24 h, ischemia was induced by carotid occlusion with atraumatic clips, for 15 min, and then the clips were removed from the carotid arteries to allow reperfusion. Body temperature was maintained at 37 °C during the surgical procedure. The animals were studied after 5 days of reperfusion (R5d) after which they were sacrificed. Sham control animals were prepared in the same way, without carotid occlusion. We performed a power analysis (http://www.biomath.info/power/ttest.htm) to determine the sample size. Significance level and statistical power were set at 0.05 and 0.8 (80%), respectively, which afforded a sample size of […] subjects per group. The treatments were administered with concealed allocation, and in randomized order, according to a computer-generated randomization program. Ischemic animals were treated with a vehicle solution (saline/ethanol, 90:10 vol/vol) or nitrone ISQ-201, dissolved in a vehicle solution through a single intravenous tail injection, when the carotid arteries were unclamped for reperfusion. In therapeutic window experiments, the animals were treated once at the reperfusion onset or at the set reperfusion time points, after ischemia. For the administration, at 6 h and 48 h of reperfusion after ischemia, the animals were anesthetized with isoflurane for 2–3 min and 5 min, respectively, prior to the treatment administration. An independent researcher prepared the treatments for each animal, according to the randomization schedule. Data of each experimental group were normalized to each vehicle control group. All procedures associated with animal experiments were approved by the Animal Care Ethics Committee of the Hospital Universitario Ramón y Cajal (Madrid, Spain, code no. 06/2015) and were performed according to the ARRIVE guidelines.
After 5 days of reperfusion (R5d), the animals were euthanized by transcardiac perfusion, under deep anesthesia. A washout step with 200 mL of saline via the left ventricle was followed by a fixation with 4% (w/v) paraformaldehyde solution in PBS. Brains were then removed and post-fixed in the same solution, overnight at 4 °C, sequentially washed with 10%, 20%, and 30% (w/v) sucrose in PBS, and embedded in Tissue-Tek O.C.T. (Sakura Finetek), before freezing at −80 °C. Brain coronal sections containing the hippocampus were obtained by cryostat sectioning at the level of interaural line +5.7 ± 0.2 mm on real capillary gap microscope slides (Dako).
Apoptotic neurons within the brain sections were detected by using the Terminal deoxynucleotidyl transferase-mediated dUTP Nick-End Labeling (TUNEL) assay (Promega). For this test, 5-µm-thick coronal cryostat brain sections containing the dorsal hippocampal formation were obtained, as described above, and post-fixed with 4% formaldehyde in PBS for 5 min, at room temperature. After washing in PBS for three times, the sections were permeabilized with 0.1 M sodium citrate, pH 6.0, for 1 min at 95 °C, then quickly cooled in ice and washed in PBS for 5 min at room temperature. […]

In test [3] the test system is cerebral ischemia. Also noted: method as in PMID 26241908. Conditions: 0.05 and 0.1 mg/kg intraperitoneal at onset of reperfusion; cited from earlier work.

Regarding `CC(C)[C@H]1CC[C@H]2[C@@H]3CCC4=C/C(=[N+](\C)[O-])CC[C@]4(C)[C@H]3CC[C@]12C` [ISQ-201], in test [1], the “spatial memory (new arm as first choice), Y maze” value was “recovery of values similar to the control group”. In test [1] (vs control group), the “exploration activity (number of arm entries), Y maze” value is “no significant differences with the control group”. Besides, in test [1] (vs control group), the “spatial recognition (number of alternations or triads), Y maze” value is given as “no significant differences”. In addition, the “cell apoptosis vs vehicle, therapeutic window” value in test [2] (0.05 mg/kg iv given at 48 h postreperfusion, evaluated at 5 days) is “did not show significant differences”. Besides, the “apoptosis-positive cells vs vehicle, therapeutic window” value in test [2] (0.05 mg/kg iv given up to and including 6 h postreperfusion, hippocampal and cortical regions, evaluated at 5 days) is “significantly reduced”. Besides, in test [2] (0.05 and 0.1 mg/kg iv at reperfusion onset, CA1 and cortical regions, 5 days of reperfusion), the “apoptotic cells vs vehicle group” value is listed as “significant reduction”. Further, the “maximum neuroprotection (Emax), TUNEL assay” value in test [2] (cortex, most potent concentration, 5 days of reperfusion) is recorded as 81%; in test [2] (hippocampal CA1, most potent concentration, 5 days of reperfusion) it was 35%. In addition, in test [3], the “neuronal death, apoptosis and neurodeficit score” value is given as “significant decreases”.
